What was measured:
[1] = biological target: T1, Methylated-DNA--protein-cysteine methyltransferase (Homo sapiens) (UniProt P16455); settings: MCF7; 1 uM
T1 sequence (whole entry): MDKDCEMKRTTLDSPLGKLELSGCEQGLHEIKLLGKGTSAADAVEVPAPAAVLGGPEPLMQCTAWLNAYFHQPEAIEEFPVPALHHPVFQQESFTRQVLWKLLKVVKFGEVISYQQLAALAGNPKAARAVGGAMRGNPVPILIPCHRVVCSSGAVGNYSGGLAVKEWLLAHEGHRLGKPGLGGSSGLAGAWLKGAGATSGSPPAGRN
Description: In vitro inhibitory activity of compound against AGT (O6-alkylguanine-DNA alkyltransferase) at a concentration of 1 uM using breast cancer MCF-7 cells, expressed as Fmol O6-MeG removed/mg of protein

[2] = biological target: T1, Methylated-DNA--protein-cysteine methyltransferase (Homo sapiens); settings: MCF7; 50 uM
Description: In vitro inhibitory activity of compound against AGT (O6-alkylguanine-DNA alkyltransferase) at a concentration of 50 uM using breast cancer MCF-7 cells, expressed as Fmol O6-MeG removed/mg of protein

[3] = biological target: T1, Methylated-DNA--protein-cysteine methyltransferase (Homo sapiens); settings: MCF7; 10 uM
Description: In vitro inhibitory activity of compound against AGT (O6-alkylguanine-DNA alkyltransferase) at a concentration of 10 uM using breast cancer MCF-7 cells, expressed as Fmol O6-MeG removed/mg of protein

[4] = biological target: T1, Methylated-DNA--protein-cysteine methyltransferase (Homo sapiens); settings: MCF7; 0.1 uM
Description: In vitro inhibitory activity of compound against AGT (O6-alkylguanine-DNA alkyltransferase) at a concentration of 0.1 uM using breast cancer MCF-7 cells, expressed as Fmol O6-MeG removed/mg of protein

[5] = biological target: T1, Methylated-DNA--protein-cysteine methyltransferase (Homo sapiens); test: In vitro inhibitory activity of compound against AGT (O6-alkylguanine-DNA alkyltransferase) at a concentration of 10 uM using breast cancer MCF cells, expressed as Fmol O6-MeG removed/mg of protein; type: cell-based
[6] = biological target: T1, Methylated-DNA--protein-cysteine methyltransferase (Homo sapiens); test: In vitro inhibitory activity of compound against AGT (O6-alkylguanine-DNA alkyltransferase) at a concentration of 50 uM using breast cancer MCF cells, expressed as Fmol O6-MeG removed/mg of protein; type: cell-based
[7] = biological target: T1, Methylated-DNA--protein-cysteine methyltransferase (Homo sapiens); test: In vitro inhibitory activity of compound against AGT (O6-alkylguanine-DNA alkyltransferase) at a concentration of 0.1 uM using breast cancer MCF cells, expressed as Fmol O6-MeG removed/mg of protein; type: cell-based
[8] = biological target: T1, Methylated-DNA--protein-cysteine methyltransferase (Homo sapiens); test: In vitro inhibitory activity of compound against AGT (O6-alkylguanine-DNA alkyltransferase) at a concentration of 1 uM using breast cancer MCF cells, expressed as Fmol O6-MeG removed/mg of protein; type: cell-based

Row | Structure (SMILES) | Activity ((fM of O6-MeG removed) (mg of protein)-1) [1] | Activity ((fM of O6-MeG removed) (mg of protein)-1) [2] | Activity ((fM of O6-MeG removed) (mg of protein)-1) [3] | Activity ((fM of O6-MeG removed) (mg of protein)-1) [4] | Activity ((fM of O6-MeG removed) (mg of protein)-1) [5] | Activity ((fM of O6-MeG removed) (mg of protein)-1) [6] | Activity ((fM of O6-MeG removed) (mg of protein)-1) [7] | Activity ((fM of O6-MeG removed) (mg of protein)-1) [8]
1 | Nc1nc(OCc2ccccc2)c2nc[nH]c2n1 | 164 | 19 | 50 | 2390 |  |  |  | 
2 | COCc1cccc(COc2[nH]c(N)nc3ncnc2-3)c1 |  |  |  |  | 21 | 15 | 1640 | 1140
3 | COCc1ccc(COc2[nH]c(N)nc3ncnc2-3)cc1 |  |  |  |  | 35 | 58 | 457 | 292
4 | COCc1ccccc1COc1[nH]c(N)nc2ncnc1-2 |  |  |  |  | 2490 | 660 | 2340 | 2300

— ChEMBL document CHEMBL1136584, “Synthesis and preliminary biological evaluation of 6-O-[11C]-[(methoxymethyl)benzyl]guanines, new potential PET breast cancer imaging agents for the DNA repair protein AGT” (Bioorg Med Chem Lett, 2003)
